From patent publication US20250235543A1, “MODIFIED PROTEINS AND PROTEIN DEGRADERS” (Cullgen (Shanghai), Inc., priority 2021, published 2025)
Like-named read-outs stand apart in the source and are kept apart here.

Columns and labels:
cyclin D1 = assay: Cyclin D1 percentage degradation in Calu-1 cells (immunoblotting); type: cell-based; conditions: 16 hours
Summary of the method: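 Cells were rinsed once in cold PBS and lysed in cold RIPA buffer containing protease and phosphatase inhibitors, with gentle agitation at 4° C. for 30 min. Lysates were spun at 13,000 rpm for 10 min at 4° C., protein was measured by BCA, and samples were boiled in Laemmli buffer at 99° C. for 5 min before SDS-PAGE immunoblotting.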

CDK4 = biological target: T1, CDK4 (Homo sapiens, UniProt P11802); assay: CDK4 percentage degradation in Calu-1 cells (immunoblotting); type: cell-based; conditions: for inhibition at 10 µM: read-out: CDK4 Degradation (10 μM); for inhibition at 0.2 µM: read-out: CDK4 Degradation (200 nM)
T1 construct: endogenous in cells; host or cells: Calu-1
Summary of the method: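 Cultured cells were rinsed once in cold PBS and lysed in cold RIPA buffer containing protease and phosphatase inhibitors, with gentle agitation at 4° C. for 30 min. Lysates were centrifuged at 13,000 rpm for 10 min at 4° C., and protein was quantified by BCA. Samples were then separated by SDS-PAGE, detected with ECL, and the CDK4 bands quantified in Image Lab.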

T1 sequence (P11802 2-303 limits assumed): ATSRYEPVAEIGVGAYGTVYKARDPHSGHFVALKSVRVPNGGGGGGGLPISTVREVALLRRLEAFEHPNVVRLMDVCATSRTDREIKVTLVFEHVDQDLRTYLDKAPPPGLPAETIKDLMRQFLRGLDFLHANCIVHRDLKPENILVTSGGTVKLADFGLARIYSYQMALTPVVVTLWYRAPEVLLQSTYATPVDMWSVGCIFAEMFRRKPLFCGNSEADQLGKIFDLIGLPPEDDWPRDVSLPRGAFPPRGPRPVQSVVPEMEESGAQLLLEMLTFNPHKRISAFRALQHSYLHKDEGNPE
T1 sequence (P24385 whole entry partner): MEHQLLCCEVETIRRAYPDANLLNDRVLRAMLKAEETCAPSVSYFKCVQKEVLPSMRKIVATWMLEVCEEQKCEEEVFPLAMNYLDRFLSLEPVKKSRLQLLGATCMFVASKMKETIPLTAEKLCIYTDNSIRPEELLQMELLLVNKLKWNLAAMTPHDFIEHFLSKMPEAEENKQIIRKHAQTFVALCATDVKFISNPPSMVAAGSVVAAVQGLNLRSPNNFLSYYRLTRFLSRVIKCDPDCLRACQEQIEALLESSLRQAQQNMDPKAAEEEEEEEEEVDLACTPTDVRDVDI
T1 sequence (Q16531 2-1140 limits assumed, further chain): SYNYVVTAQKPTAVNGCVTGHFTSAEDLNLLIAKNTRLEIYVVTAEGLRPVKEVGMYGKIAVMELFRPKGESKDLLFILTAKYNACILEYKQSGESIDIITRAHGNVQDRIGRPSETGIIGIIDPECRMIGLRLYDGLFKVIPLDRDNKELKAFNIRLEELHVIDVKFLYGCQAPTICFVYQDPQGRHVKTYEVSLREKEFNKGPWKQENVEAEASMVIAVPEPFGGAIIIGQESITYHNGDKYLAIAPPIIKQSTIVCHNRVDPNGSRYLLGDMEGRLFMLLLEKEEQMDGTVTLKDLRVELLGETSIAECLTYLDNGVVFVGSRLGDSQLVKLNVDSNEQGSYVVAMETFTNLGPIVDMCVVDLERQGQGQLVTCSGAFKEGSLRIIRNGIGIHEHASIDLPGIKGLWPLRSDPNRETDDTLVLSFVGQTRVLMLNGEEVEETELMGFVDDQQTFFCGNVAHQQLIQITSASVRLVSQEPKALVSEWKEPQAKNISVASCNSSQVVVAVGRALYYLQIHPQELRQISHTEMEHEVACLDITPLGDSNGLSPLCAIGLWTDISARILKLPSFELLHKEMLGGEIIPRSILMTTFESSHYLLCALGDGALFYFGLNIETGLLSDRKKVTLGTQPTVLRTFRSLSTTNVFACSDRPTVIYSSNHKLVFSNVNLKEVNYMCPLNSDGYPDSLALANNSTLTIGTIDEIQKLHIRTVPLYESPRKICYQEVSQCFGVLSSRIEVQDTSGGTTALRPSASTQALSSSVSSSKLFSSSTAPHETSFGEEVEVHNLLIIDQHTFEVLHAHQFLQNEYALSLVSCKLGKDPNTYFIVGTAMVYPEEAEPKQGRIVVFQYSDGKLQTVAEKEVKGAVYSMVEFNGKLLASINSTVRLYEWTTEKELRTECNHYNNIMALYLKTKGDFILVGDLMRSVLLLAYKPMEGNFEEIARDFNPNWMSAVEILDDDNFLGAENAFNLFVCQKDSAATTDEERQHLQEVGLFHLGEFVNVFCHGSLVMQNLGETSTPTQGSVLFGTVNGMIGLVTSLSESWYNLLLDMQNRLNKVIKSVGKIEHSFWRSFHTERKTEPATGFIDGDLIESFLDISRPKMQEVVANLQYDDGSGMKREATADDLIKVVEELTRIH

SMILES	CyclinD1 Degradation (10 μM) (cyclin D1)	inhibition at 10 µM (CDK4; Calu-1 cells, 16 hours) [%]	CyclinD1 Degradation (200 nM) (cyclin D1)	inhibition at 0.2 µM (CDK4; Calu-1 cells, 200 nM, 16 hours) [%]	inhibition at 0.2 µM (CDK4; Calu-1, 16 h) [%]
Cc1nc(NC(=O)c2ccccc2NC(=O)CCOCCNC(=O)CN2CCN(Cc3ccc(Nc4ncc(F)c(-c5cc(F)c6nc(C)n(C(C)C)c6c5)n4)nc3)CC2)sc1C [CPD-280, N-(4,5-Dimethylthiazol-2-yl)-2-(3-(2-(2-(4-((6-((5-fluoro-4-(4-fluoro-1-isopropyl-2-methyl-1H-benzo[d]imidazol-6-yl)pyrimidin-2-yl)amino)pyridin-3-yl)methyl)piperazin-1-yl)acetamido)ethoxy)propanamido)benzamide]	D (protein percentage degradation < 30%)	< 30	–	–	–
Cc1nc(NC(=O)c2ccccc2NC(=O)CCOCCOCCOCCOCCOCCNC(=O)CN2CCN(c3ccc(Nc4ncc5cc(C(=O)N(C)C)n(C6CCCC6)c5n4)nc3)CC2)sc1C [CPD-298, 7-Cyclopentyl-2-((5-(4-(21-((2-((4,5-dimethylthiazol-2-yl)carbamoyl)phenyl)amino)-2,21-dioxo-6,9,12,15,18-pentaoxa-3-azahenicosyl)piperazin-1-yl)pyridin-2-yl)amino)-N,N-dimethyl-7H-pyrrolo[2,3-d]pyrimidine-6-carboxamide]	A (protein percentage degradation >= 80%)	50 to 80	–	–	–
CC(=O)c1c(C)c2cnc(Nc3ccc(N4CCN(CC(=O)NCCOCCOCCNc5cccc(C(=O)Nc6nc(C)c(C)s6)c5C)CC4)cn3)nc2n(C2CCCC2)c1=O [CPD-104, 3-((2-(2-(2-(2-(4-(6-((6-Acetyl-8-cyclopentyl-5-methyl-7-oxo-7,8-dihydropyrido[2,3-d]pyrimidin-2-yl)amino)pyridin-3-yl)piperazin-1-yl)acetamido)ethoxy)ethoxy)ethyl)amino)-N-(4,5-dimethylthiazol-2-yl)-2-methylbenzamide]	–	–	A (protein percentage degradation >=80%)	30 to 50	–
CC(=O)c1c(C)c2cnc(Nc3ccc(N4CCN(C(=O)CCOCCNc5cccc(C(=O)Nc6nc(C)c(C)s6)c5C)CC4)cn3)nc2n(C2CCCC2)c1=O [CPD-120, 3-((2-(3-(4-(6-((6-Acetyl-8-cyclopentyl-5-methyl-7-oxo-7,8-dihydropyrido[2,3-d]pyrimidin-2-yl)amino)pyridin-3-yl)piperazin-1-yl)-3-oxopropoxy)ethyl)amino)-N-(4,5-dimethylthiazol-2-yl)-2-methylbenzamide]	–	–	D (protein percentage degradation <30%)	–	< 30
Cc1nc(NC(=O)c2ccccc2NC(=O)CCCCCCCCNC(=O)CN2CCN(c3ccc(Nc4ncc(F)c(-c5cc(F)c6nc(C)n(C(C)C)c6c5)n4)nc3)CC2)sc1C [CPD-307, N-(4,5-Dimethylthiazol-2-yl)-2-(9-(2-(4-(6-((5-fluoro-4-(4-fluoro-1-isopropyl-2-methyl-1H-benzo[d]imidazol-6-yl)pyrimidin-2-yl)amino)pyridin-3-yl)piperazin-1-yl)acetamido)nonanamido)benzamide]	D (protein percentage degradation < 30%)	< 30	–	–	–
Cc1nc(NC(=O)c2ccccc2NC(=O)CCCCNC(=O)CN2CCN(Cc3ccc(Nc4ncc(F)c(-c5cc(F)c6nc(C)n(C(C)C)c6c5)n4)nc3)CC2)sc1C [CPD-275, N-(4,5-Dimethylthiazol-2-yl)-2-(5-(2-(4-((6-((5-fluoro-4-(4-fluoro-1-isopropyl-2-methyl-1H-benzo[d]imidazol-6-yl)pyrimidin-2-yl)amino)pyridin-3-yl)methyl)piperazin-1-yl)acetamido)pentanamido)benzamide]	D (protein percentage degradation < 30%)	< 30	–	–	–
CC(=O)c1c(C)c2cnc(Nc3ccc(N4CCN(CC(=O)NCCNc5ccc(C)c(C(=O)Nc6nc(C)c(C)s6)c5)CC4)cn3)nc2n(C2CCCC2)c1=O [CPD-093, 5-((2-(2-(4-(6-((6-Acetyl-8-cyclopentyl-5-methyl-7-oxo-7,8-dihydropyrido[2,3-d]pyrimidin-2-yl)amino)pyridin-3-yl)piperazin-1-yl)acetamido)ethyl)amino)-N-(4,5-dimethylthiazol-2-yl)-2-methylbenzamide]	–	–	D (protein percentage degradation <30%)	< 30	–
CC(=O)c1c(C)c2cnc(Nc3ccc(N4CCN(CC(=O)NCCCCCNc5cc(C#N)ccc5C(=O)Nc5ccc(N(C)C)nn5)CC4)cn3)nc2n(C2CCCC2)c1=O [CPD-376, 2-((5-(2-(4-(6-((6-Acetyl-8-cyclopentyl-5-methyl-7-oxo-7,8-dihydropyrido[2,3-d]pyrimidin-2-yl)amino)pyridin-3-yl)piperazin-1-yl)acetamido)pentyl)amino)-4-cyano-N-(6-(dimethylamino)pyridazin-3-yl)benzamide]	–	–	A (protein percentage degradation >=80%)	50 to 80	–
CC(=O)c1c(C)c2cnc(Nc3ccc(N4CCN(CC(=O)NCCOCCOCCOCCOCCOCCOCCC(=O)Nc5ccccc5C(=O)Nc5nc(C)c(C)s5)CC4)cn3)nc2n(C2CCCC2)c1=O [CPD-173, 2-(1-(4-(6-((6-Acetyl-8-cyclopentyl-5-methyl-7-oxo-7,8-dihydropyrido[2,3-d]pyrimidin-2-yl)amino)pyridin-3-yl)piperazin-1-yl)-2-oxo-6,9,12,15,18,21-hexaoxa-3-azatetracosan-24-amido)-N-(4,5-dimethylthiazol-2-yl)benzamide]	–	–	A (protein percentage degradation >=80%)	> 80	–
CC(=O)c1c(C)c2cnc(Nc3ccc(N4CCN(CC(=O)NCCCC(=O)Nc5ccccc5C(=O)Nc5nc(C)c(C)s5)CC4)cn3)nc2n(C2CCCC2)c1=O [CPD-171, 2-(4-(2-(4-(6-((6-Acetyl-8-cyclopentyl-5-methyl-7-oxo-7,8-dihydropyrido[2,3-d]pyrimidin-2-yl)amino)pyridin-3-yl)piperazin-1-yl)acetamido)butanamido)-N-(4,5-dimethylthiazol-2-yl)benzamide]	–	–	D (protein percentage degradation <30%)	< 30	–
CC(=O)c1c(C)c2cnc(Nc3ccc(N4CCN(CC(=O)NCCOCCOCCNC(=O)c5ccc(C(=O)Nc6ncc(C)s6)c(C)c5)CC4)cn3)nc2n(C2CCCC2)c1=O [CPD-010, N^4-(2-(2-(2-(2-(4-(6-((6-Acetyl-8-cyclopentyl-5-methyl-7-oxo-7,8-dihydropyrido[2,3-d]pyrimidin-2-yl)amino)pyridin-3-yl)piperazin-1-yl)acetamido)ethoxy)ethoxy)ethyl)-2-methyl-N^1-(5-methylthiazol-2-yl)terephthalamide]	–	–	D (protein percentage degradation <30%)	< 30	–
CC(=O)c1c(C)c2cnc(Nc3ccc(N4CCN(C(=O)CCOCCOCCOCCOCCNc5cccc(C(=O)Nc6nc(C)c(C)s6)c5C)CC4)cn3)nc2n(C2CCCC2)c1=O [CPD-123, 3-((15-(4-(6-((6-Acetyl-8-cyclopentyl-5-methyl-7-oxo-7,8-dihydropyrido[2,3-d]pyrimidin-2-yl)amino)pyridin-3-yl)piperazin-1-yl)-15-oxo-3,6,9,12-tetraoxapentadecyl)amino)-N-(4,5-dimethylthiazol-2-yl)-2-methylbenzamide]	–	–	A (protein percentage degradation >=80%)	–	50 to 80
CC(=O)c1c(C)c2cnc(Nc3ccc(N4CCN(CC(=O)NCCOCCOCCC(=O)Nc5ccccc5C(=O)Nc5nc(C6CC6)ns5)CC4)cn3)nc2n(C2CCCC2)c1=O [CPD-059, 2-(3-(2-(2-(2-(4-(6-((6-Acetyl-8-cyclopentyl-5-methyl-7-oxo-7,8-dihydropyrido[2,3-d]pyrimidin-2-yl)amino)pyridin-3-yl)piperazin-1-yl)acetamido)ethoxy)ethoxy)propanamido)-N-(3-cyclopropyl-1,2,4-thiadiazol-5-yl)benzamide]	–	–	D (protein percentage degradation <30%)	< 30	–
CC(=O)c1c(C)c2cnc(Nc3ccc(N4CCN(CC(=O)NCCOCCOCCOCCOCCOCCNC(=O)COc5ccc(C(=O)Nc6ncc(C)s6)c(C)c5)CC4)cn3)nc2n(C2CCCC2)c1=O [CPD-019, 4-((23-(4-(6-((6-Acetyl-8-cyclopentyl-5-methyl-7-oxo-7,8-dihydropyrido[2,3-d]pyrimidin-2-yl)amino)pyridin-3-yl)piperazin-1-yl)-2,22-dioxo-6,9,12,15,18-pentaoxa-3,21-diazatricosyl)oxy)-2-methyl-N-(5-methylthiazol-2-yl)benzamide]	–	–	D (protein percentage degradation <30%)	< 30	–
CC(=O)c1c(C)c2cnc(Nc3ccc(N4CCN(CC(=O)NCCCCCNc5cc(Cl)ccc5C(=O)Nc5ccc(C)c(C6CC6)n5)CC4)cn3)nc2n(C2CCCC2)c1=O [CPD-378, 2-((5-(2-(4-(6-((6-acetyl-8-cyclopentyl-5-methyl-7-oxo-7,8-dihydropyrido[2,3-d]pyrimidin-2-yl)amino)pyridin-3-yl)piperazin-1-yl)acetamido)pentyl)amino)-4-chloro-N-(6-cyclopropyl-5-methylpyridin-2-yl)benzamide]	–	–	B (protein percentage degradation <80%, and >=50%)	< 30	–
COc1ccc(NC(=O)c2ccccc2NC(=O)CCN2CCN(CCNC(=O)CN3CCN(c4ccc(Nc5ncc6c(C)c(C(C)=O)c(=O)n(C7CCCC7)c6n5)nc4)CC3)CC2)nn1 [CPD-345, 2-(3-(4-(2-(2-(4-(6-((6-Acetyl-8-cyclopentyl-5-methyl-7-oxo-7,8-dihydropyrido[2,3-d]pyrimidin-2-yl)amino)pyridin-3-yl)piperazin-1-yl)acetamido)ethyl)piperazin-1-yl)propanamido)-N-(6-methoxypyridazin-3-yl)benzamide]	–	–	A (protein percentage degradation >=80%)	50 to 80	–
